In brackets after ≈: the same amount, converted by molar mass.
Columns and labels:
[1] = Solubility, guidance for forming solutions
From the text: Compositions for use in the systems herein are readily formulated by admixing the fungal cell wall degrading enzymes and the antifungal fungal cell membrane affecting compounds with non-toxic carriers appropriate for the particular use for a composition, e.g., agriculturally acceptable carriers for agricultural uses and pharmaceutically acceptable carriers for medicinal uses. They may be formulated as liquids (solutions or suspensions) or as solids. Since the fungal cell wall degrading enzymes need free water for activity, water must be present at the time of function. […] Water is a preferred vehicle where components are soluble in it. […] Organic solvents can also be used and may be required in some cases if a solution is desired. Guidance for forming solutions follows. […] Suspension can also be employed.

B. cinerea strain 12 = assay: Inhibition of spore germination, ELISA plate assay (Examples III-XVI, XVIII); type: cell-based, Botrytis cinerea; conditions: for ED50: alone or with enzyme at its ED10 concentration; for inhibition of spore germination: FIG. 7
Experimental: (§1) The concentration where fungal cell wall degrading enzyme individually provides a specified percentage fungal inhibition or where antifungal fungal cell membrane affecting compound individually provides a specific percentage fungal inhibition can be determined as follows: Assays are performed under sterile conditions. Equal volumes of spore suspensions, 3× potato dextrose broth, and the test solution or suspension in 5 mM Tris-HCl (pH 6.0) or 5 mM potassium phosphate buffer (pH 6.7) are mixed. The control is the same as the test solution except for the control the antifungal agent is omitted. The assay mixtures (total volume 45 or 30 μl) are incubated on flat-bottomed ELISA plates, each containing 96 wells, with 2,000 to 3,000 spores per well, at 25° C. After 22 to 30 hours, the plates are placed under an inverted microscope. The percentage of conidia germinating is determined as the percentage of the first 100 spores randomly found in a well. In addition, the lengths of 20 germ tubes are measured and averaged. All experiments are performed twice, with three replicates for each treatment. The inhibition values obtained in the two experiments are combined and averaged, and standard deviations are calculated from the 6 data points. The values obtained for the control are taken as 0% inhibition and all other values are divided by the values obtained for the control and multiplied by 100% to obtain percent inhibition. Determination of concentration corresponding to a particular percent inhibition is carried out by subjecting dose-response curves to regression analysis by using a binomial regression of the third order, with R^2 ranging between 0.95 and 0.99.
(§2) Assays were carried out by the procedure described in the summary of the invention section. Dose response curves were obtained by probit analysis of data collected from two separate experiments with each experiment involving three treatment replicates.
Each of 8 antifungal fungal cell membrane affecting compounds were used in combination with each of 8 or 6 fungal cell wall degrading enzymes to provide 50% inhibition (ED50) of B. cinerea strain 12 spore germination. Each fungal cell wall degrading enzyme was used at a concentration giving 10% inhibition of spore germination when used alone in combination with an amount of antifungal fungal cell membrane affecting compound so the combination gave 50% inhibition of spore germination.
(§3) Dose response curves were determined for each antifungal fungal cell membrane affecting compound and for each fungal cell wall degrading enzyme singly. Then each fungal cell wall degrading enzyme at a concentration giving 10% inhibition when used alone was combined with increasing amounts of antifungal fungal cell membrane affecting compound. Then the concentration of antifungal fungal cell membrane affecting compound causing the ED50 for each combination was calculated by probit analysis of data collected from two experiments with three treatment replicates for each experiment. Assays for inhibition of spore germination were carried out as described in the summary of invention section above.
The relative level of synergism (RS below) for each combination was calculated by applying Limpel's formula: Ee=X+Y−(XY/100) as described in Richer, D. L, Pestic. Sci. 19, 309-315, 1987. In Limpel's formula, X and Y are the percentages of inhibition relative to each compound used alone and Ee is the expected effect for an additional (non-synergistic) effect. If the combination of the two agents produces an observed effect (Eo) greater than Ee, synergism exists, and as the difference between Eo and Ee increases, the level of synergism is greater. […]

[2] = system: Fusarium oxysporum strain FOP1; assay: Inhibition of spore germination, ELISA plate assay (Examples V-XIV, XVII); type: cell-based; conditions: for inhibition of spore germination: FIG. 8
Experimental: as §1, §2, §3
The relative level of synergism (RS below) for each combination was calculated by applying Limpel's formula: Ee=X+Y−(XY/100) as described in Richer, D. L, Pestic. Sci. 19, 309-315, 1987. In Limpel's formula, X and Y are the percentages of inhibition relative to each compound used alone and Ee is the expected effect for an additional (non-synergistic) effect. If the combination of the two agents produces an observed effect (Eo) greater than Ee, synergism exists, and as the difference between Eo and Ee increases, the level of synergism is greater. In this experiment, the X value (percentage inhibition by fungal cell wall degrading enzyme when used alone was chosen to be 10 (10% inhibition of spore germination when used alone) and the observed effect, Eo, was 50 (i.e., 50% inhibition of spore germination). The Y values were obtained from the determined concentrations of antifungal cell membrane affecting compound causing the ED50 for a combination and the dose response curves for the antifungal cell membrane affecting compound used alone—i.e., the Y value was the percent inhibition for the antifungal fungal cell membrane affecting compound when used alone for the concentration of antifungal fungal cell membrane affecting compound that was determined to cause the ED50 for the combination. Ee values were then calculated from Limpel's formula. […]

B. cinerea = conditions: against B. cinerea, Watanabe et al; cited from earlier work

## trichorzianine B1 [Trich. B1]
[1]
  solubility (solvent in which the substance dissolves): readily dissolved in water
B. cinerea strain 12; Table 19, concentration of trichorzianine B1 for 50% inhibition
  ED50: 95.2 (92-99) μg ml^−1
[2]; Table 27, concentration of trichorzianine B1 for 50% inhibition, alone or with enzyme at its ED10 concentration
  ED50: 95.5 (92-99) ng ml^−1

## gramicidin
[1]
  solubility (solvent in which the substance dissolves): dissolves in ethanol
B. cinerea strain 12; Table 15, concentration of gramicidin for 50% inhibition
  ED50: >300 µg/mL
B. cinerea strain 12; gramicidin alone
  inhibition of spore germination: 20-25%
B. cinerea strain 12; gramicidin with endochitinase from G. virens strain 41 (2.5, 5 μg/ml)
  inhibition of spore germination: about 100%
[2]; Table 23, concentration of gramicidin for 50% inhibition, alone or with enzyme at its ED10 concentration
  ED50: >300 ng/mL
[2]; gramicidin alone
  inhibition of spore germination: 20-25%
[2]; gramicidin with glucosidase from T. harzianum strain P1 (10, 25 μg/ml)
  inhibition of spore germination: about 100%

## CC(C)[C@@H]1NC(=O)[C@H](C)OC(=O)[C@@H](C(C)C)NC(=O)[C@@H](C(C)C)OC(=O)[C@H](C(C)C)NC(=O)[C@H](C)OC(=O)[C@@H](C(C)C)NC(=O)[C@@H](C(C)C)OC(=O)[C@H](C(C)C)NC(=O)[C@H](C)OC(=O)[C@@H](C(C)C)NC(=O)[C@@H](C(C)C)OC1=O [Valinomycin, valinomycin]
[1]
  solubility (solvent in which the substance dissolves): dissolve in acetone
B. cinerea strain 12; Table 16, concentration of valinomycin for 50% inhibition
  ED50: 7.3 (7.0-7.6) μg ml^−1
[2]; Table 24, concentration of valinomycin for 50% inhibition, alone or with enzyme at its ED10 concentration
  ED: 8.5 (8.0-9.0) ng ml^−1

## trichorzianine A1 [Trich. A1]
[1]
  solubility (solvent in which the substance dissolves): readily dissolved in water
B. cinerea strain 12; Table 18, concentration of trichorzianine A1 for 50% inhibition
  ED50: 90.5 (85-95) μg ml^−1
[2]; Table 26, concentration of trichorzianine A1 for 50% inhibition, alone or with enzyme at its ED10 concentration
  ED50: 87 (83-91) ng ml^−1

## NC(=O)OC[C@H](O)[C@@H](O)[C@H](N)C(=O)N[C@H](C(=O)O)[C@H]1O[C@@H](n2cc(CO)c(=O)[nH]c2=O)[C@H](O)[C@@H]1O [polyoxin B]
B. cinerea
  Minimum inhibitory concentration: 12.5 mg/L (≈ 24.6 µM)

## CC(C)OP(=O)(OC(C)C)SCc1ccccc1 [kitazin P]
B. cinerea
  Minimum inhibitory concentration: 500 mg/L (≈ 1730 µM)

## CN1C(=O)[C@]23CC4=CC=C[C@H](O)[C@H]4N2C(=O)[C@@]1(CO)SS3 [Gliotoxin, gliotoxin]
[1]
  solubility (solvent in which the substance dissolves): dissolves in methanol and ethanol

Source: patent publication US6512166B1, “Combinations of fungal cell wall degrading enzyme and fungal cell membrane affecting compound” (priority 1991, dated 2003)
